According to US6534524B1, “Indazole compounds and pharmaceutical compositions for inhibiting protein kinases, and methods for their use” (Agouron Pharmaceuticals, Inc., priority 1999, dated 2003):
Read-outs that look alike come from different tables or passages of the source. Marks after values point to notes of the source that are not given here.

Assays:
[1] = Determination of inhibitor concentration in mouse plasma after intraperitoneal and oral dosing; format: in vivo
Summary of the method: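 Plasma levels quantified by HPLC or LC-MS using a standard curve prepared in mouse plasma, following ethyl acetate extraction with internal standard and sodium hydroxide. Sampling at 0.5, 1, 4 h (ocular bleed) and 7 h (cardiac puncture) after oral or intraperitoneal dosing.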

[2] = target: unphosphorylated VEGF-R2Δ50 (FLVK) (Homo sapiens, UniProt P35968, DEL940-989/E990V); assay: VEGF-R2 coupled spectrophotometric assay, unphosphorylated VEGF-R2Δ50 (FLVK); settings: FLVK Ki, Table 1
Chain of unphosphorylated VEGF-R2Δ50 (FLVK) (P35968 with tags, fused parts or gaps DEL940-989/E990V limits assumed): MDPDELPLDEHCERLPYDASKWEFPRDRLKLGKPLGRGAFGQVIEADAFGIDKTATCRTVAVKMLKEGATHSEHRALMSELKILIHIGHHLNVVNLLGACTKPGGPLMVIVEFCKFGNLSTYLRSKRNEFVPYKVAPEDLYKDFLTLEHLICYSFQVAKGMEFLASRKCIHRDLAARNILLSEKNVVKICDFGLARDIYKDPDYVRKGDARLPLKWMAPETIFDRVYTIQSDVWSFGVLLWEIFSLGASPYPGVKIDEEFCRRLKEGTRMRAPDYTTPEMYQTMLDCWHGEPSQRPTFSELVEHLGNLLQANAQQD

[3] = Human liver microsome (HLM) assay; format: in vitro ADME; settings: human liver microsomes, 5 μM test compound
Summary of the method: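 LC-MS quantified test compound remaining after 0 and 2 h incubation with human liver microsomes. Triplicate samples, clarified by 10 min centrifugation at 14000 g.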

[4] = IP, 25 mg/kg, vehicle PEG400:H2O pH 2.3 30:70
[5] = PO, 50 mg/kg, vehicle PEG400:H2O pH 2.3 30:70
[6] = female, IP, 25 mg/kg, vehicle PEG400:H2O pH 2.3 30:70, read-out: Cmin (7 hr conc.)
[7] = female, PO, 50 mg/kg, vehicle PEG400:H2O pH 2.3 30:70, read-out: Cmin (7 hr conc.)
[8] = female, IP, 25 mg/kg, vehicle PEG400:H2O pH 2.3 30:70
[9] = PO, 25 mg/kg, vehicle PEG400:H2O pH 2.3 30:70
[10] = female, PO, 25 mg/kg, vehicle PEG400:H2O pH 2.3 30:70
[11] = female, PO, 25 mg/kg, vehicle PEG400:H2O pH 2.3 30:70, read-out: Cmin (7 hr conc.)
[12] = IP, 25 mg/kg, vehicle PEG400:H2O pH 2.3 60:40
[13] = PO, 50 mg/kg, vehicle PEG400:H2O pH 2.3 60:40
[14] = female, IP, 25 mg/kg, vehicle PEG400:H2O pH 2.3 60:40, read-out: Cmin (7 hr conc.)
[15] = female, PO, 50 mg/kg, vehicle PEG400:H2O pH 2.3 60:40, read-out: Cmin (7 hr conc.)

For O=C(NC1CC1)c1ccccc1Sc1ccc2c(/C=C/c3ccccn3)n[nH]c2c1 [Example 33(e), 6-[2-(Cyclopropylcarbamoyl)phenylsulfanyl]-3-E-[2-(pyridin-2-yl)ethenyl]-1H-1H-indazole], the AUClast [1, 4] was 14323 ng·h/mL, the “plasma half-life (T1/2)” value [1, 4] was 1.0 h and the AUClast [1, 5] was 13290 ng·h/mL. The “plasma half-life (T1/2)” value [1, 5] was 0.7 h, the concentration at 7 h [1, 6] was 94 ng/mL and the concentration at 7 h [1, 7] was 12 ng/mL. The Ki [2] was 1.7 nM and the “% remain (HLM, 2 h)” value [3] was 54%.

For O=C(c1cccc(NC(=O)c2ccc(Cl)s2)c1)c1ccc2c(/C=C/c3ccccn3)n[nH]c2c1 [Example 41(o), 6-[3-((5-Chlorothien-2-yl)carboxamido)benzoyl]-3-E-[2-(pyridin-2-yl)ethenyl]-1H-indazole], the AUClast [1, 5] was 14717 ng·h/mL, the “plasma half-life (T1/2)” value [1, 5] was 1.7 h and the AUC(0-t) [1, 8] was over 33800 ng·h/mL. It also gave a concentration at 7 h [1, 6] of over 5000 ng/mL, a concentration at 7 h [1, 7] of 427 ng/mL and a Ki [2] of 0.05 nM. The “% remain (HLM, 2 h)” value [3] was 94%.

For O=C(Nc1ccccc1)c1ccccc1Sc1ccc2c(/C=C/c3ccccn3)n[nH]c2c1 [Example 33(c), 6-[2-(Phenylcarbamoyl)phenylsulfanyl]-3-E-[2-(pyridin-2-yl)ethenyl]-1H-indazole], the AUClast [1, 4] was 697 ng·h/mL, the Cmax [1, 4] was 505 ng/mL and the “plasma half-life (T1/2)” value [1, 4] was 1.2 h. The AUClast [1, 5] was 183 ng·h/mL, the Cmax [1, 5] was 94 ng/mL and the “plasma half-life (T1/2)” value [1, 5] was 3.0 h. For the same compound, the concentration at 7 h [1, 6] was 7 ng/mL, the concentration at 7 h [1, 7] was 5 ng/mL and the Ki [2] was 0.28 nM. The “% remain (HLM, 2 h)” value [3] was 16%.

For C=CCn1nc(C)cc1C(=O)Nc1cccc(C(=O)c2ccc3c(/C=C/c4ccccn4)n[nH]c3c2)c1 [Example 41(t), 6-[3-((1-Allyl-3-methyl-1H-pyrazol-5-yl)carboxamido)benzoyl]-3-E-[2-(pyridin-2-yl)ethenyl]-1H-indazole], the “plasma half-life (T1/2)” value [1, 9] was 4.0 h, the AUC(0-t) [1, 10] was over 22500 ng·h/mL and the concentration at 7 h [1, 11] was 1350 ng/mL. For the same compound, the Ki [2] was 0.06 nM and the “% remain (HLM, 2 h)” value [3] was 87%.

For O=C(NCC(F)(F)F)c1ccccc1Sc1ccc2c(/C=C/c3ccccn3)n[nH]c2c1 [Example 33(f), 6-[2-(2,2,2-Trifluoroethylcarbamoyl)phenylsulfanyl]-3-E-[2-(pyridin-2-yl)ethenyl]-1H-indazole], the AUClast [1, 4] was 1887 ng·h/mL, the “plasma half-life (T1/2)” value [1, 4] was 2.4 h and the AUClast [1, 5] was 1436 ng·h/mL. For the same compound, the “plasma half-life (T1/2)” value [1, 5] was 0.7 h, the concentration at 7 h [1, 6] was 6 ng/mL and the concentration at 7 h [1, 7] was 3 ng/mL. For the same compound, the Ki [2] was 8 nM and the “% remain (HLM, 2 h)” value [3] was 31%.

For O=C(Nc1cccc(C(=O)c2ccc3c(/C=C/c4ccccc4)n[nH]c3c2)c1)c1ccncc1 [Example 19(j), 6-[3-(Pyridin-4-ylcarboxamido)benzoyl]-3-E-styryl-1H-indazole], the AUClast [1, 12] was 23205 ng·h/mL, the Cmax [1, 12] was 5764 ng/mL and the “plasma half-life (T1/2)” value [1, 12] was 1.6 h. For the same compound, the AUClast [1, 13] was 5889 ng·h/mL, the Cmax [1, 13] was 1937 ng/mL and the “plasma half-life (T1/2)” value [1, 13] was 1.2 h. The concentration at 7 h [1, 14] was 456 ng/mL, the concentration at 7 h [1, 15] was 63 ng/mL and the Ki [2] was 0.33 nM. The “% remain (HLM, 2 h)” value [3] was 66%.

For CC(=O)c1ccc(C(=O)Nc2cccc(C(=O)c3ccc4c(/C=C/c5ccccn5)n[nH]c4c3)c2)s1 [Example 41(e), 6-[3-((5-Acetylthien-2-yl)carboxamido)benzoyl]-3-E-[2-(pyridin-2-yl)ethenyl]-1H-indazole], the AUClast [1, 12] was 4900 ng·h/mL, the Cmax [1, 12] was 1154 ng/mL and the “plasma half-life (T1/2)” value [1, 12] was 1.6 h. For the same compound, the AUClast [1, 13] was 302 ng·h/mL, the Cmax [1, 13] was 113 ng/mL and the “plasma half-life (T1/2)” value [1, 13] was 1.6 h. It also gave a concentration at 7 h [1, 14] of 301 ng/mL, a concentration at 7 h [1, 15] of 7 ng/mL and a Ki [2] of 0.22 nM. The “% remain (HLM, 2 h)” value [3] was 22%.

In the case of Cc1cnc(C(=O)Nc2cccc(N(C)c3ccc4c(/C=C/c5ccccc5)n[nH]c4c3)c2)s1 [Example 12(d), 5-Methyl-thiazole-2-carboxylic Acid {3-[Methyl-(3-styryl-1H-indazol-6-yl)-amino]-phenyl}-amide], the Ki [2] is reported as 0.39 nM and the “% remain (HLM, 2 h)” value [3] is reported as 51%.

In the case of Cc1cc(C(=O)Nc2cccc(C(=O)c3ccc4c(/C=C/c5ccccn5)n[nH]c4c3)c2)on1 [Example 41(m), 6-[3-((3-Methylisoxazol-5-yl)carboxamido)benzoyl]-3-E-[2-(pyridin-2-yl)ethenyl]-1H-indazole], the AUClast [1, 4] is reported as 1864 ng·h/mL, the “plasma half-life (T1/2)” value [1, 4] is reported as 2.3 h and the AUClast [1, 5] is reported as 9 ng·h/mL. The Cmax [1, 5] was 5 ng/mL, the “plasma half-life (T1/2)” value [1, 5] was “blq” and the Ki [2] was 0.75 nM. The “% remain (HLM, 2 h)” value [3] was 0%.

In the case of O=C(c1cccc(NC(=O)c2cccc(Cl)n2)c1)c1ccc2c(/C=C/c3ccccc3)n[nH]c2c1 [Example 19(m), 6-[3-(6-Chloropyridin-2-ylcarboxamido)benzoyl]-3-E-styryl-1H-indazole], the Ki [2] is reported as 0.68 nM and the “% remain (HLM, 2 h)” value [3] is reported as 61%.

For O=C(Nc1cccc(C(=O)c2ccc3c(-c4nc5ccccc5[nH]4)n[nH]c3c2)c1)c1ccccc1 [Example 42(b), 6-(3-Benzamidobenzoyl)-3-(1H-benzoimidazol-2-yl)-1H-indazole], the AUClast [1, 12] was 3207 ng·h/mL, the “plasma half-life (T1/2)” value [1, 12] was 3.0 h and the AUClast [1, 13] was 4747 ng·h/mL. The “plasma half-life (T1/2)” value [1, 13] was 3.0 h, the concentration at 7 h [1, 14] was 211 ng/mL and the concentration at 7 h [1, 15] was 46 ng/mL. For the same compound, the Ki [2] was 0.35 nM and the “% remain (HLM, 2 h)” value [3] was 81%.

With Cc1cc(C(=O)Nc2cccc(C(=O)c3ccc4c(/C=C/c5ccccn5)n[nH]c4c3)c2)n[nH]1 [Example 41(g), 6-[3-((5-Methyl-1H-pyrazol-3-yl)carboxamido)benzoyl]-3-E-[2-(pyridin-2-yl)ethenyl]-1H-indazole] the AUClast [1, 12] was 1925 ng·h/mL, the “plasma half-life (T1/2)” value [1, 12] was 0.3 h and the AUClast [1, 13] was 508 ng·h/mL. For the same compound, the “plasma half-life (T1/2)” value [1, 13] was 0.7 h, the concentration at 7 h [1, 14] was 0 ng/mL and the concentration at 7 h [1, 15] was 1 ng/mL. The Ki [2] was 0.1 nM and the “% remain (HLM, 2 h)” value [3] was 52%.

With O=C(Nc1cccc(Oc2ccc3c(/C=C/c4ccccn4)n[nH]c3c2)c1)c1ccccc1 [Example 31(a), 6-[3-Benzamidophenoxy]-3-E-[2-(pyridin-2-yl)ethenyl]-1H-indazole] the AUClast [1, 4] was 47538 ng·h/mL, the Cmax [1, 4] was 13018 ng/mL and the “plasma half-life (T1/2)” value [1, 4] was 2.4 h. For the same compound, the AUClast [1, 5] was 40863 ng·h/mL, the Cmax [1, 5] was 14499 ng/mL and the “plasma half-life (T1/2)” value [1, 5] was 1.6 h. It also gave a concentration at 7 h [1, 6] of 1910 ng/mL, a concentration at 7 h [1, 7] of 834 ng/mL and a Ki [2] of 0.29 nM. The “% remain (HLM, 2 h)” value [3] was 58%.

For O=C(Nc1cccc(Oc2ccc3c(/C=C/c4cccs4)n[nH]c3c2)c1)c1ccccc1 [Example 30(a), 6-[3-Benzamidophenoxy]-3-E-[2-(thien-2-yl)ethenyl]-1H-indazole], the Ki [2] was 1.7 nM and the “% remain (HLM, 2 h)” value [3] was 64%.

Compound O=C(NCc1cccc(F)c1)c1ccccc1Sc1ccc2c(/C=C/c3ccccn3)n[nH]c2c1 [Example 35(ff)] has an AUC(0-t) [1, 8] of over 6300 ng·h/mL, a Cmax ([1]; female, IP, 25 mg/kg, vehicle PEG400:H2O pH 2.3 30:70, read-out: Cmax) of over 4000 ng/mL and a concentration at 7 h [1, 6] of 72 ng/mL. The Ki [2] was 0.11 nM and the “% remain (HLM, 2 h)” value [3] was 31%.

In the case of Cn1ccnc1C(=O)Nc1cccc(Oc2ccc3c(/C=C/c4ccccn4)n[nH]c3c2)c1 [Example 31(e), 6-[3-((1-Methylimidazol-2-yl)carboxaniido)phenoxy]-3-E-[2-(pyridin-2-yl)ethenyl]-1H-indazole], the “plasma half-life (T1/2)” value [1, 9] is reported as 13.1 h, the AUC(0-t) [1, 10] is reported as over 30300 ng·h/mL and the concentration at 7 h [1, 11] is reported as 2950 ng/mL. For the same compound, the Ki [2] was 0.02 nM and the “% remain (HLM, 2 h)” value [3] was 49%.

For O=C(Nc1cccc(Oc2ccc3c(/C=C/c4ccc(Cl)cc4)n[nH]c3c2)c1)c1ccccc1 [Example 6(a), N-(3-{3-[2-(4-Chloro-phenyl)-vinyl]-1H-indazol-6-yloxy}-phenyl)-benzamide], the Ki [2] was 0.74 nM and the “% remain (HLM, 2 h)” value [3] was 69* %.
